From patent publication US7074789B2, “Kinase inhibitors” (Amgen Inc., priority 1999, dated 2006)

How the values were obtained:
Assay type in all cases: biochemical
Zap-70 = target: T1, Zap-70 (Homo sapiens, UniProt P43403); assay: Kinase inhibition assay (33P transfer), Zap-70; details: Table 3, class symbols; read-out: Zap-1
T1 construct: Kinases are expressed as either kinase domains or full length constructs; made in house
T1 sequence (P43403 1-619): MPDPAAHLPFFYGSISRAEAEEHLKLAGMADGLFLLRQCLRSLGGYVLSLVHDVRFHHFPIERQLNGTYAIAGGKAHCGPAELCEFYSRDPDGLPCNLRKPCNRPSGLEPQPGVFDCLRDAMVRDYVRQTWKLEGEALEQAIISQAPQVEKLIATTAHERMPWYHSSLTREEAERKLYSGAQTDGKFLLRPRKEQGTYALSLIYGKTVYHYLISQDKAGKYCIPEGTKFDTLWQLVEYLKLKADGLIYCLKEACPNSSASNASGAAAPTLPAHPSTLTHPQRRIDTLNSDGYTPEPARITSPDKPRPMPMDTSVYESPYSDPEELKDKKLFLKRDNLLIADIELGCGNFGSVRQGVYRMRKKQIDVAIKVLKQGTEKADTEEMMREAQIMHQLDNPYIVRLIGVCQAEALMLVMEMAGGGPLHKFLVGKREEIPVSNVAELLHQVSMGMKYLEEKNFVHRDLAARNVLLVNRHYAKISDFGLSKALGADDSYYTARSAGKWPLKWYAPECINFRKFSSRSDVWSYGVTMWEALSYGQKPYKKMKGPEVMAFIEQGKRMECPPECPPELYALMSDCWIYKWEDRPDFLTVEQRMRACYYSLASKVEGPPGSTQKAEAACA
Summary of the method: (§1)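 Kinase domains or full-length kinases, GST- or His-tagged and expressed in E. coli or baculovirus/High Five cells, transferred 33PO4 from ATP onto plate-bound poly(Glu,Tyr) 4:1 or poly(Arg,Ser) 3:1. After incubation, plates were washed with 0.5% phosphoric acid and counted by liquid scintillation.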

Kdr = target: T2, Kdr (Homo sapiens, UniProt P35968); assay: Kinase inhibition assay (33P transfer), Kdr; details: Table 3, class symbols; read-out: KDR-1
T2 construct: Kinases are expressed as either kinase domains or full length constructs; made in house
T2 sequence (P35968 20-1356, species assumed): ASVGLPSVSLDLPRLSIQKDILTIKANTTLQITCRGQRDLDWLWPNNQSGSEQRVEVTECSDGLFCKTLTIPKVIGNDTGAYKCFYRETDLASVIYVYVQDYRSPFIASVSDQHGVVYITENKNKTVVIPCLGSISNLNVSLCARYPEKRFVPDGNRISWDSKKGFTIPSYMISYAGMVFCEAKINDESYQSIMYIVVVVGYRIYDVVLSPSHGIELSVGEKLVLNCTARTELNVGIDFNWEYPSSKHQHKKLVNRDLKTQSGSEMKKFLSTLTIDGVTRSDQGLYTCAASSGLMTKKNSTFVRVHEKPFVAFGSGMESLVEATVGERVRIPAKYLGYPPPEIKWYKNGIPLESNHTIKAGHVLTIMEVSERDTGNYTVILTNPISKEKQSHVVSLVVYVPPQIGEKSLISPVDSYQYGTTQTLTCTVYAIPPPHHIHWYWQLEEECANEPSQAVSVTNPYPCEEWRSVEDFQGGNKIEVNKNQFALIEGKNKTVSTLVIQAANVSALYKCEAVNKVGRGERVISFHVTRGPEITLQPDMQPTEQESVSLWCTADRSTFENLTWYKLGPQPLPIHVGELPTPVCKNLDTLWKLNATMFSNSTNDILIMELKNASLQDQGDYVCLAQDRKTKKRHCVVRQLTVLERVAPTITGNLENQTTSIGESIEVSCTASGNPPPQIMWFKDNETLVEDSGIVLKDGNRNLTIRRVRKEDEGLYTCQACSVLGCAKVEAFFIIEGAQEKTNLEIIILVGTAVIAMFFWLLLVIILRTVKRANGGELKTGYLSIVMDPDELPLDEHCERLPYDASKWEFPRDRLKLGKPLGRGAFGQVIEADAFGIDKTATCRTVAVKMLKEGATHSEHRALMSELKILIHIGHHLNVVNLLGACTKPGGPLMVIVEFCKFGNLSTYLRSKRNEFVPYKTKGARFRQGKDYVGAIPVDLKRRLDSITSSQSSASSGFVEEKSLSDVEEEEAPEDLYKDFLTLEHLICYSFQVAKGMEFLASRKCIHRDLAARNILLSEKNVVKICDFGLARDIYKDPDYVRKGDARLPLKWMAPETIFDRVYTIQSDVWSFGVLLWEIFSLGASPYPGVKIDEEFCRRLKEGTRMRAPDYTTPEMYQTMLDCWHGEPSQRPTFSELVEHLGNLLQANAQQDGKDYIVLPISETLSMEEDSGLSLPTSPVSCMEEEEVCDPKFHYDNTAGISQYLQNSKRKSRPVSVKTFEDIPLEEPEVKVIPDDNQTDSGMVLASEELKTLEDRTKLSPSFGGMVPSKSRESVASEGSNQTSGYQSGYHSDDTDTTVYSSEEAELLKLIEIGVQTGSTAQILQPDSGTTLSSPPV
Summary of the method: as §1

EGFR = target: T3, EGFR (Homo sapiens, UniProt P00533); assay: Kinase inhibition assay (33P transfer), EGFR; details: Table 2, class symbols A-E; read-out: EGFR-1
T3 construct: Kinases are expressed as either kinase domains or full length constructs; made in house
Summary of the method: (§2)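 GST/His-fusion kinases, E. coli or High Five expressed, affinity purified; 33P-ATP, plate-coated poly(Glu,Tyr) 4:1 or poly(Arg,Ser) 3:1; 0.5% H3PO4 wash, scintillant, LSC.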

ErbB2 = target: T4, ErbB2 (Homo sapiens, UniProt P04626); assay: Kinase inhibition assay (33P transfer), ErbB2; details: read-out: ErbB2-2
T4 construct: Kinases are expressed as either kinase domains or full length constructs; made in house
Summary of the method: as §2

AKT = target: T5, AKT (Homo sapiens, UniProt Q9Y243); assay: Kinase inhibition assay (33P transfer), AKT; details: Table 2, class symbols A-E; read-out: AKT3-1
T5 construct: Kinases are expressed as either kinase domains or full length constructs; made in house
T5 sequence (Q9Y243 whole entry, the tested form may be a part): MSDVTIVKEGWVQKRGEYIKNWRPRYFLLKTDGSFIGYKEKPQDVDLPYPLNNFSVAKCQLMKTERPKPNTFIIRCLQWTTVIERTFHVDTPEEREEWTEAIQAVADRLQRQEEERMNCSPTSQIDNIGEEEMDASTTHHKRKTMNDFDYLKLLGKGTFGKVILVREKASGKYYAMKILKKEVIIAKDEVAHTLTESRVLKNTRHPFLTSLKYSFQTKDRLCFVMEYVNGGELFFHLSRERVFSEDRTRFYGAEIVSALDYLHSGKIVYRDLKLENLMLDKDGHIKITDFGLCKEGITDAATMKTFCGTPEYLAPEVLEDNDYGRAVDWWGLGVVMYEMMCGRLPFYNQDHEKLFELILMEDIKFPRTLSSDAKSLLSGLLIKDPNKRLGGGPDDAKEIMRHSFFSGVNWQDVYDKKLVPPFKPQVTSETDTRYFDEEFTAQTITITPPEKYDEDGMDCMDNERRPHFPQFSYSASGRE
Summary of the method: as §1

Itk = target: T6, Itk (Homo sapiens, UniProt Q08881); assay: Kinase inhibition assay (33P transfer), Itk; details: Table 3, class symbols; read-out: Itk-1
T6 construct: Kinases are expressed as either kinase domains or full length constructs; made in house
T6 sequence (Q08881 1-620): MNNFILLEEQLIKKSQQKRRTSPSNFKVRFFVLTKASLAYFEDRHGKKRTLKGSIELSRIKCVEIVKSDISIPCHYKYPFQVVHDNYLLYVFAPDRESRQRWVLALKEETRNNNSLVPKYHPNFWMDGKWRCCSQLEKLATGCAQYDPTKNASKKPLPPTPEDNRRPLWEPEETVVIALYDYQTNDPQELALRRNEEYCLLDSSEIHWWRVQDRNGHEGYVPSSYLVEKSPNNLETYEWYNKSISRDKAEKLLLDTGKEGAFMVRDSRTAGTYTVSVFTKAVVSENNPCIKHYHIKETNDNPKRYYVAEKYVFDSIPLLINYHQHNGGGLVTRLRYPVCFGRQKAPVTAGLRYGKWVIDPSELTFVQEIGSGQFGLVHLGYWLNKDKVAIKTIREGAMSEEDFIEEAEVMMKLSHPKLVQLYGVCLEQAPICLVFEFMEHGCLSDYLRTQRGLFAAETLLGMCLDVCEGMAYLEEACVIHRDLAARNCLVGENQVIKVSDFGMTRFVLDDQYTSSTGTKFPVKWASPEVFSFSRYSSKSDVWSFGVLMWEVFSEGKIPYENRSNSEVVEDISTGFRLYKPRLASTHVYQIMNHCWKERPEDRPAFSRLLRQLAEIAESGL
Summary of the method: as §2

c-Met = target: T7, c-Met (Homo sapiens, UniProt P08581); assay: Kinase inhibition assay (33P transfer), c-Met; details: Table 2, class symbols A-E; read-out: Met-1
T7 construct: Kinases are expressed as either kinase domains or full length constructs; made in house
Summary of the method: as §2

Lck = target: T8, Lck (Homo sapiens, UniProt P06239); assay: Kinase inhibition assay (33P transfer), Lck; details: Table 3, class symbols; read-out: Lck-1
T8 construct: Kinases are expressed as either kinase domains or full length constructs; made in house
T8 sequence (P06239 whole entry, species assumed, the tested form may be a part): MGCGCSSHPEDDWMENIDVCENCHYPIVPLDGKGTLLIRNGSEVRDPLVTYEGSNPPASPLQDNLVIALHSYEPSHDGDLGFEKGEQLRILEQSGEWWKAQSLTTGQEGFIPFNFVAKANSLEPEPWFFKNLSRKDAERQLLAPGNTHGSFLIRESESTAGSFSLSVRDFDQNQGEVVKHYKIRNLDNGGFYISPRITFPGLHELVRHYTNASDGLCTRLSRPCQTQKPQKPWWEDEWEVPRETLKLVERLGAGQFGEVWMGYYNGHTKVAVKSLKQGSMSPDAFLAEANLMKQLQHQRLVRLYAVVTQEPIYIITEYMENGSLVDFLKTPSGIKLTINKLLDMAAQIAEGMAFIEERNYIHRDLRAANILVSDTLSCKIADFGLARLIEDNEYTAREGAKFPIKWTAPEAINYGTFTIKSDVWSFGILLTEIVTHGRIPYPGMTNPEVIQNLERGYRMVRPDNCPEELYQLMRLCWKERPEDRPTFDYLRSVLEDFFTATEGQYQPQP
Summary of the method: as §1

IGFR-1 = target: T9, IGFR-1 (Homo sapiens, UniProt P08069); assay: Kinase inhibition assay (33P transfer), IGFR-1; details: Table 2, class symbols A-E
T9 construct: Kinases are expressed as either kinase domains or full length constructs; made in house
T9 sequence (P08069 31-1367): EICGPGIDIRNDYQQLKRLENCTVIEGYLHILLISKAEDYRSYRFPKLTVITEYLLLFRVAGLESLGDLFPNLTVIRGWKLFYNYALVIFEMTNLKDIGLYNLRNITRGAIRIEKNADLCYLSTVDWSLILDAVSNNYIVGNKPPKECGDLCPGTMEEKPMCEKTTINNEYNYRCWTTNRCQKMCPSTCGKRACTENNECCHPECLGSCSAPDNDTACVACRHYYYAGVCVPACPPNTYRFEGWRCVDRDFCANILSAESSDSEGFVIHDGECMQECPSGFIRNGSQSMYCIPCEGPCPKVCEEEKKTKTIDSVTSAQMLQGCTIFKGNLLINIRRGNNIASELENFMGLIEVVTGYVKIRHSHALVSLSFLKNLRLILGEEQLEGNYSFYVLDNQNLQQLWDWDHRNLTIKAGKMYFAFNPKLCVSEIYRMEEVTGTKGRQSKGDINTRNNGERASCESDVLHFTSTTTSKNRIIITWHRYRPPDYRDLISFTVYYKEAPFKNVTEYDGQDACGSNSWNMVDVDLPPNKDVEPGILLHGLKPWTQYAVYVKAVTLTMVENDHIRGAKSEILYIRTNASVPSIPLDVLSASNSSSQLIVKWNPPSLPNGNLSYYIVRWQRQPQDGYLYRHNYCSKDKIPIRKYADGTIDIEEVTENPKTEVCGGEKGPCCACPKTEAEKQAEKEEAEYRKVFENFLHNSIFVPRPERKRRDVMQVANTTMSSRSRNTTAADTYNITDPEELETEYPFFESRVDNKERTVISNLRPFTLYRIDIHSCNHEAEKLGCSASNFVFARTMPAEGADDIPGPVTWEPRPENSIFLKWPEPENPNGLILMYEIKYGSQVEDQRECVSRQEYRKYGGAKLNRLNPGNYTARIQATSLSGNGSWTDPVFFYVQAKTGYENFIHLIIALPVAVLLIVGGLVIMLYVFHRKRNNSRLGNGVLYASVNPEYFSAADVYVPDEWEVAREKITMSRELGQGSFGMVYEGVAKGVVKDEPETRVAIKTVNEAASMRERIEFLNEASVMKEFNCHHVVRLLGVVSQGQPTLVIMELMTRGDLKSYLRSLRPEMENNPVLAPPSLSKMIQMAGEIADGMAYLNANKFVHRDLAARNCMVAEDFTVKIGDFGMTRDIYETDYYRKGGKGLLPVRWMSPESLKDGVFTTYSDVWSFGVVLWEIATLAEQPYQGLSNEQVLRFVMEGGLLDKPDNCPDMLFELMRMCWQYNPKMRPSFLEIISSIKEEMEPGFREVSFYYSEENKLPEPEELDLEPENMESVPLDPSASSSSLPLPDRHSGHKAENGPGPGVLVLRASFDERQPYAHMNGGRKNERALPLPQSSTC

PDGFRB = target: T10, PDGFRB (Homo sapiens, UniProt P09619); assay: Kinase inhibition assay (33P transfer), PDGFRB; details: read-out: PDGFRB-1
T10 construct: Kinases are expressed as either kinase domains or full length constructs; made in house
T10 sequence (P09619 33-1106, species assumed): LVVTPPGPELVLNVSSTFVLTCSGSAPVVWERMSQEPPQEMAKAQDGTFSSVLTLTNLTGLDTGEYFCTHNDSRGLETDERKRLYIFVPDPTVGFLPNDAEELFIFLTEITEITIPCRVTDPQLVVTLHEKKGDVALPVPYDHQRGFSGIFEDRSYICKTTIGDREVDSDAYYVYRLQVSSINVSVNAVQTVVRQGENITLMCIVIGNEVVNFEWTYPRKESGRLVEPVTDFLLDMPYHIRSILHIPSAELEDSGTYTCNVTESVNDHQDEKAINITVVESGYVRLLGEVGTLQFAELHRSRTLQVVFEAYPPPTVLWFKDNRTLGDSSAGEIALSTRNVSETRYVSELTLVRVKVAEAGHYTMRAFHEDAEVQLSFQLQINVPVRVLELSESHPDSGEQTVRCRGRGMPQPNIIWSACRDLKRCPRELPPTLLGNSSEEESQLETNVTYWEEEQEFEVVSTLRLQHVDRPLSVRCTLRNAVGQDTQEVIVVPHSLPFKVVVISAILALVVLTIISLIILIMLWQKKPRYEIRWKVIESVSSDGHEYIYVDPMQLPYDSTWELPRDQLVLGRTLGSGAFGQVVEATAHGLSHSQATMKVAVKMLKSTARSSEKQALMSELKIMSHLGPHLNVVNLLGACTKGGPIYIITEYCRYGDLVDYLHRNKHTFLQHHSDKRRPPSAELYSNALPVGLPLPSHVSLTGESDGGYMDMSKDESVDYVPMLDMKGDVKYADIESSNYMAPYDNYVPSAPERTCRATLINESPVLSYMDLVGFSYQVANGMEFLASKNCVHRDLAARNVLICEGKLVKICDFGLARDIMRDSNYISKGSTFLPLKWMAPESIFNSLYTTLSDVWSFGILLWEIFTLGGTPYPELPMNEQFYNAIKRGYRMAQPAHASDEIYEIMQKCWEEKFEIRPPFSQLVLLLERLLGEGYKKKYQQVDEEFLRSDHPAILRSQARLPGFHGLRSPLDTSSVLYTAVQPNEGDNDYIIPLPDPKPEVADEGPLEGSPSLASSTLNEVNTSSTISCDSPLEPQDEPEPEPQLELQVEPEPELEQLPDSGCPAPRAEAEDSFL

SMILES: Cc1nccc(-c2cccc(Nc3ncnc(Nc4ccc5c(cnn5Cc5ccccc5)c4)n3)c2)n1 [Compound 901]
- IC50 (Zap-70): > 9.27 µM
- IC50 (Kdr): 0.824 to 4.94 µM
- IC50 (EGFR): < 0.824 µM
- IC50 (ErbB2): 0.824 to 4.94 µM
- IC50 (AKT): 0.824 to 4.94 µM
- IC50 (Itk): 0.824 to 4.94 µM
- IC50 (c-Met): 0.824 to 4.94 µM
- IC50 (Lck): 0.824 to 4.94 µM
- IC50 (IGFR-1): > 9.27 µM
- IC50 (PDGFRB): < 0.824 µM

SMILES: COc1ccc(Nc2ncnc(N(C)c3ccc4c(cnn4Cc4ccccc4)c3)n2)cc1OC [Compound 669]
- IC50 (Zap-70): > 9.62 µM
- IC50 (Kdr): 0.856 to 5.13 µM
- IC50 (EGFR): < 0.856 µM
- IC50 (ErbB2): < 0.856 µM
- IC50 (AKT): > 9.62 µM
- IC50 (Itk): > 9.62 µM
- IC50 (c-Met): 7.49 to 9.62 µM
- IC50 (Lck): 0.856 to 5.13 µM
- IC50 (IGFR-1): > 9.62 µM
- IC50 (PDGFRB): 0.856 to 5.13 µM

SMILES: CN(c1cccc(Cl)c1)c1ncnc(Nc2cc(Cl)c(Cl)c(Cl)c2)n1 [Compound 804]
- IC50 (Zap-70): > 10.8 µM
- IC50 (Kdr): > 10.8 µM
- IC50 (EGFR): > 10.8 µM
- IC50 (ErbB2): > 10.8 µM
- IC50 (AKT): > 10.8 µM
- IC50 (Itk): > 10.8 µM
- IC50 (c-Met): > 10.8 µM
- IC50 (Lck): > 10.8 µM
- IC50 (IGFR-1): > 10.8 µM
- IC50 (PDGFRB): 8.43 to 10.8 µM

SMILES: COC(=O)c1ccc(-c2cc(Nc3ncnc(NCCCO)n3)[nH]n2)cc1 [Compound 818]
- IC50 (Zap-70): > 12.2 µM
- IC50 (Kdr): > 12.2 µM
- IC50 (EGFR): > 12.2 µM
- IC50 (ErbB2): > 12.2 µM
- IC50 (AKT): > 12.2 µM
- IC50 (Itk): > 12.2 µM
- IC50 (c-Met): > 12.2 µM
- IC50 (Lck): > 12.2 µM
- IC50 (IGFR-1): > 12.2 µM
- IC50 (PDGFRB): 1.08 to 6.5 µM

SMILES: CNS(=O)(=O)Cc1ccc(Nc2ncnc(Nc3cc(-c4ccco4)[nH]n3)n2)cc1 [Compound 888]
- IC50 (Zap-70): > 10.6 µM
- IC50 (Kdr): < 0.938 µM
- IC50 (EGFR): 0.938 to 5.63 µM
- IC50 (ErbB2): 0.938 to 5.63 µM
- IC50 (AKT): 0.938 to 5.63 µM
- IC50 (Itk): < 0.938 µM
- IC50 (c-Met): < 0.938 µM
- IC50 (Lck): 5.63 to 8.21 µM
- IC50 (IGFR-1): < 0.938 µM
- IC50 (PDGFRB): 0.938 to 5.63 µM

SMILES: COc1ccc(Nc2ncnc(Nc3cc(Cl)cc(Cl)c3)n2)cc1OC [Compound 898]
- IC50 (Zap-70): > 11.5 µM
- IC50 (Kdr): > 11.5 µM
- IC50 (EGFR): 6.12 to 8.92 µM
- IC50 (ErbB2): > 11.5 µM
- IC50 (AKT): > 11.5 µM
- IC50 (Itk): > 11.5 µM
- IC50 (c-Met): > 11.5 µM
- IC50 (Lck): > 11.5 µM
- IC50 (IGFR-1): 6.12 to 8.92 µM
- IC50 (PDGFRB): 8.92 to 11.5 µM

SMILES: FC(F)(F)Sc1cccc(Nc2ncnc(Nc3cc(-c4ccco4)[nH]n3)n2)c1 [Compound 827]
- IC50 (Zap-70): 0.954 to 5.72 µM
- IC50 (Kdr): 0.954 to 5.72 µM
- IC50 (EGFR): < 0.954 µM
- IC50 (ErbB2): < 0.954 µM
- IC50 (AKT): 8.35 to 10.7 µM
- IC50 (Itk): 0.954 to 5.72 µM
- IC50 (c-Met): 0.954 to 5.72 µM
- IC50 (Lck): 0.954 to 5.72 µM
- IC50 (IGFR-1): 0.954 to 5.72 µM
- IC50 (PDGFRB): 0.954 to 5.72 µM
